Reference: ChEMBL document CHEMBL1201862, “PubChem BioAssay data set” (2004)
Active and inactive are the calls of the source.

Tests used:
[1] = ATP-based viability loss in HEK293T cells – cell-based, CellTiter-Glo luminescence, dry powder, set 2, cytotoxicity control, dose response (AID 720595); format: functional; conditions: HEK293
cells = format: functional, cell-based
[2] = general mammalian cell viability loss – inhibitor set, cherry-pick, set 2, cytotoxicity control for miR-122 modulator project, dose response (AID 720697); format: functional, cell-based
[3] = activation of miR-122 Renilla sensor silencing – cell-based, Huh7 psiCHECK-miR122, Renilla luciferase, cherry-picked, dose response (AID 651956); format: functional;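 also: huh7 hepatoma cells stably carrying a psiCHECK-2 miR-122 sensor plasmid; renilla luciferase signal reporting endogenous miR-122 activity after 48 h compound exposure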
[4] = target: Serine/threonine-protein kinase Nek2 (Homo sapiens, UniProt P51955); format: functional
Chain of Serine/threonine-protein kinase Nek2 (P51955 whole entry): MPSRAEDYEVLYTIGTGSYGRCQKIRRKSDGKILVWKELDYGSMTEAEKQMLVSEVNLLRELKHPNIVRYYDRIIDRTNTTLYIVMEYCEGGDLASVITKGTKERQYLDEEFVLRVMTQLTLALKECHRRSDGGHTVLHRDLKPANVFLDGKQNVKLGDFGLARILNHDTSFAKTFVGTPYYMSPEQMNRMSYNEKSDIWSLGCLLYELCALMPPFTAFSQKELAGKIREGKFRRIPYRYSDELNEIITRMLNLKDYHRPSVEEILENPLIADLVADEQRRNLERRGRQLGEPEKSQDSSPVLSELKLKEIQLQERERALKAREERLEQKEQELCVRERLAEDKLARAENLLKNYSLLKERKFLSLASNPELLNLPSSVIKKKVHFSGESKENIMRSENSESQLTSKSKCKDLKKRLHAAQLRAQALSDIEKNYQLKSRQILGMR

Question: What does the source list for `CC(C)CC(=O)NC(c1cccs1)c1ccc2cccnc2c1O` (stereo not given)?
Answer: AC50 [1]: 1.75 µM (active); EC50 (cells): 6.65 µM (active)

Question: What does the source list for `OC(CNCCC1C=Nc2ccccc21)Cn1c2ccc(Cl)cc2c2cc(Cl)ccc21` (stereo not given)?
Answer: AC50 [2]: 7.91 µM (active); AC50 [3]: 12.8 µM (active)

Question: With `O=C(O)C1CN(Cc2ccc(OCc3ccccc3)cc2Cl)C1` as the compound, how does the Ki [4] read?
Answer: > 3.16 µM (inactive)
